Test results from patent publication US20100035866A1, “NOVEL SUBSTITUTED-1, 1-DIOXO-BENZO[1,2,4]THIADIAZIN-3ONES, PREPARATION METHOD THEREOF, AND PHARMACEUTICAL COMPOSITION CONTAINING THE SAME” (KOREA RESEARCH INSTITUTE OF CHEMICAL TECHNOLOGY, priority 2006, published 2010).
Where two headings read alike, the source gives them in different places.

Tests used:
[1] = molecular target: Human serotonin 5-HT6 receptor (Homo sapiens, UniProt P50406); experiment: [3H]LSD binding assay on cloned 5-HT6 receptor
Human serotonin 5-HT6 receptor, sequence (P50406 whole entry): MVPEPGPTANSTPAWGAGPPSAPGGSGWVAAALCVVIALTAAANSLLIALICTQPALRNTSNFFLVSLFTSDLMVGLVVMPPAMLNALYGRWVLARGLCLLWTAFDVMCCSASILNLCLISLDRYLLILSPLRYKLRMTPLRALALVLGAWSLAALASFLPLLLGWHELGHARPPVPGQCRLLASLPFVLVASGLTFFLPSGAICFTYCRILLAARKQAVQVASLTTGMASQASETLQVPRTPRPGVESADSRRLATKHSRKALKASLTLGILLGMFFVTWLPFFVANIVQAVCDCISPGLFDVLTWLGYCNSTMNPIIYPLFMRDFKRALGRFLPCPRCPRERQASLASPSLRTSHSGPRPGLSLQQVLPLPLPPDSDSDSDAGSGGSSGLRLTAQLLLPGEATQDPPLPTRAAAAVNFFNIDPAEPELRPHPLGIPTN

[2] = IC50 (nM), binding affinity to the 5-HT6 receptor, Table 2, 1.87 nM [3H]LSD, cloned human receptor membranes from Sf21 cells, 37° C. 60 min

SMILES	IC50 [1, 2] [nM]	melting point [°C]	IC50 [1] [nM]
CN1CCN(c2cc(Cl)cc3c2S(=O)(=O)N(Cc2ccc(F)cc2)C(=O)N3Cc2ccccc2)CC1 [Example 4, 4-Benzyl-6-chloro-2-(4-fluoro-benzyl)-8-(4-methyl-piperazin-1-yl)-1,1-dioxo-1,4-dihydro-2H-1λ^6-benzo[1,2,4]thiadiazin-3-one]	5.4	112 to 113	
CN1CCN(c2cc(Cl)cc3c2S(=O)(=O)N(Cc2cccc(Cl)c2)C(=O)N3Cc2ccccc2)CC1 [Example 6, 4-Benzyl-6-chloro-2-(3-chloro-benzyl)-8-(4-methyl-piperazin-1-yl)-1,1-dioxo-1,4-dihydro-2H-1λ^6-benzo[1,2,4]thiadiazin-3-one]	5.2	87 to 88	
CN1CCN(c2cc(Cl)cc3c2S(=O)(=O)N(Cc2ccccc2Br)C(=O)N3Cc2ccccc2)CC1 [Example 8, 4-Benzyl-2-(2-bromo-benzyl)-6-chloro-8-(4-methyl-piperazin-1-yl)-1,1-dioxo-1,4-dihydro-2H-1λ^6-benzo[1,2,4]thiadiazin-3-one]	8.9	107 to 109	
CN1CCN(c2cc(Cl)cc3c2S(=O)(=O)N(Cc2cccc(Br)c2)C(=O)N3Cc2ccccc2)CC1 [Example 9, 4-Benzyl-2-(3-bromo-benzyl)-6-chloro-8-(4-methyl-piperazin-1-yl)-1,1-dioxo-1,4-dihydro-2H-1λ^6-benzo[1,2,4]thiadiazin-3-one]	2.2	96 to 98	
CN1CCN(c2cc(Cl)cc3c2S(=O)(=O)N(Cc2ccc(Br)cc2)C(=O)N3Cc2ccccc2)CC1 [Example 10, 4-Benzyl-2-(4-bromo-benzyl)-6-chloro-8-(4-methyl-piperazin-1-yl)-1,1-dioxo-1,4-dihydro-2H-1λ^6-benzo[1,2,4]thiadiazin-3-one]	6.1	115 to 116	
CN1CCN(c2cc(Cl)cc3c2S(=O)(=O)N(Cc2cccc(I)c2)C(=O)N3Cc2ccccc2)CC1 [Example 11, 4-Benzyl-6-chloro-2-(3-iodo-benzyl)-8-(4-methyl-piperazin-1-yl)-1,1-dioxo-1,4-dihydro-2H-1λ^6-benzo[1,2,4]thiadiazin-3-one]	4.4	96 to 98	
CN1CCN(c2cc(Cl)cc3c2S(=O)(=O)N(Cc2ccc(I)cc2)C(=O)N3Cc2ccccc2)CC1 [Example 12, 4-Benzyl-6-chloro-2-(4-iodo-benzyl)-8-(4-methyl-piperazin-1-yl)-1,1-dioxo-1,4-dihydro-2H-1λ^6-benzo[1,2,4]thiadiazin-3-one]	1.4	110 to 111	
Cc1ccccc1CN1C(=O)N(Cc2ccccc2)c2cc(Cl)cc(N3CCN(C)CC3)c2S1(=O)=O [Example 13, 4-Benzyl-6-chloro-2-(2-methyl-benzyl)-8-(4-methyl-piperazin-1-yl)-1,1-dioxo-1,4-dihydro-2H-1λ^6-benzo[1,2,4]thiadiazin-3-one]	1.6	148 to 150	
Cc1cccc(CN2C(=O)N(Cc3ccccc3)c3cc(Cl)cc(N4CCN(C)CC4)c3S2(=O)=O)c1 [Example 14, 4-Benzyl-6-chloro-2-(3-methyl-benzyl)-8-(4-methyl-piperazin-1-yl)-1,1-dioxo-1,4-dihydro-2H-1λ^6-benzo[1,2,4]thiadiazin-3-one]	11.6	188 to 191	
Cc1ccc(CN2C(=O)N(Cc3ccccc3)c3cc(Cl)cc(N4CCN(C)CC4)c3S2(=O)=O)cc1 [Example 15, 4-Benzyl-6-chloro-2-(4-methyl-benzyl)-8-(4-methyl-piperazin-1-yl)-1,1-dioxo-1,4-dihydro-2H-1λ^6-benzo[1,2,4]thiadiazin-3-one]	5.4	180 to 185	
COc1ccccc1CN1C(=O)N(Cc2ccccc2)c2cc(Cl)cc(N3CCN(C)CC3)c2S1(=O)=O [Example 16, 4-Benzyl-6-chloro-2-(2-methoxy-benzyl)-8-(4-methyl-piperazin-1-yl)-1,1-dioxo-1,4-dihydro-2H-1λ^6-benzo[1,2,4]thiadiazin-3-one]	4.6	93 to 94	
CN1CCN(c2cc(Cl)cc3c2S(=O)(=O)N(Cc2ccccc2[N+](=O)[O-])C(=O)N3Cc2ccccc2)CC1 [Example 20, 4-Benzyl-6-chloro-8-(4-methyl-piperazin-1-yl)-2-(2-nitro-benzyl)-1,1-dioxo-1,4-dihydro-2H-1λ^6-benzo[1,2,4]thiadiazin-3-one]	12.3	84 to 86	
CN1CCN(c2cc(Cl)cc3c2S(=O)(=O)N(Cc2cccc([N+](=O)[O-])c2)C(=O)N3Cc2ccccc2)CC1 [Example 21, 4-Benzyl-6-chloro-8-(4-methyl-piperazin-1-yl)-2-(3-nitro-benzyl)-1,1-dioxo-1,4-dihydro-2H-1λ^6-benzo[1,2,4]thiadiazin-3-one]	4.2	172 to 175	
CN1CCN(c2cc(Cl)cc3c2S(=O)(=O)N(Cc2ccc([N+](=O)[O-])cc2)C(=O)N3Cc2ccccc2)CC1 [Example 22, 4-Benzyl-6-chloro-8-(4-methyl-piperazin-1-yl)-2-(4-nitro-benzyl)-1,1-dioxo-1,4-dihydro-2H-1λ^6-benzo[1,2,4]thiadiazin-3-one]	8.1	163 to 164	
COC(=O)c1ccc(CN2C(=O)N(Cc3ccccc3)c3cc(Cl)cc(N4CCN(C)CC4)c3S2(=O)=O)cc1 [Example 23, 4-[4-Benzyl-6-chloro-8-(4-methyl-piperazin-1-yl)-1,1,3-trioxo-3,4-dihydro-1H-1λ^6-benzo[1,2,4]thiadiazin-2-ylmethyl]-benzoic acid methyl ester]	28.8	140 to 143	
CN1CCN(c2cc(Cl)cc3c2S(=O)(=O)N(Cc2ccc(C#N)cc2)C(=O)N3Cc2ccccc2)CC1 [Example 24, 4-[4-Benzyl-6-chloro-8-(4-methyl-piperazin-1-yl)-1,1,3-trioxo-3,4-dihydro-2H-1λ^6-benzo[1,2,4]thiadiazin-2-ylmethyl]-benzonitrile]	6.4	134 to 135	
COc1ccccc1N1C(=O)N(Cc2ccccc2)c2cc(Cl)cc(N3CCN(C)CC3)c2S1(=O)=O [Example 28, 4-Benzyl-6-chloro-2-(2-methoxy-phenyl)-8-(4-methyl-piperazin-1-yl)-1,1-dioxo-1,4-dihydro-2H-1λ^6-benzo[1,2,4]thiadiazin-3-one]	7.1	119 to 120	
COc1cccc(N2C(=O)N(Cc3ccccc3)c3cc(Cl)cc(N4CCN(C)CC4)c3S2(=O)=O)c1 [Example 29, 4-Benzyl-6-chloro-2-(3-methoxy-phenyl)-8-(4-methyl-piperazin-1-yl)-1,1-dioxo-1,4-dihydro-2H-1λ^6-benzo[1,2,4]thiadiazin-3-one]	1.7	191 to 193	
COc1ccc(N2C(=O)N(Cc3ccccc3)c3cc(Cl)cc(N4CCN(C)CC4)c3S2(=O)=O)cc1 [Example 30, 4-Benzyl-6-chloro-2-(4-methoxy-phenyl)-8-(4-methyl-piperazin-1-yl)-1,1-dioxo-1,4-dihydro-2H-1λ^6-benzo[1,2,4]thiadiazin-3-one]	5.2	115 to 116	
CN1CCN(c2cc(Cl)cc3c2S(=O)(=O)N(C)C(=O)N3C)CC1 [Example 31, 6-Chloro-2,4-dimethyl-8-(4-methyl-piperazin-1-yl)-1,1-dioxo-1,4-dihydro-2H-1λ^6-benzo[1,2,4]thiadiazin-3-one]			745
CN1CCN(c2cc(Cl)cc3c2S(=O)(=O)N(C)C(=O)N3Cc2ccccc2)CC1 [Example 32, 4-Benzyl-6-chloro-2-methyl-8-(4-methyl-piperazin-1-yl)-1,1-dioxo-1,4-dihydro-2H-1λ^6-benzo[1,2,4]thiadiazin-3-one]	4.2		
CCCCN1C(=O)N(Cc2ccccc2)c2cc(Cl)cc(N3CCN(C)CC3)c2S1(=O)=O [Example 35, 4-Benzyl-2-butyl-6-chloro-8-(4-methyl-piperazin-1-yl)-1,1-dioxo-1,4-dihydro-2H-1λ^6-benzo[1,2,4]thiadiazin-3-one]	1.9	116 to 118	
CN1CCN(c2cc(Cl)cc3c2S(=O)(=O)N(CC2CCCCC2)C(=O)N3Cc2ccccc2)CC1 [Example 36, 4-Benzyl-6-chloro-2-cyclohexylmethyl-8-(4-methyl-piperazin-1-yl)-1,1-dioxo-1,4-dihydro-2H-1λ^6-benzo[1,2,4]thiadiazin-3-one]	1.5	155 to 158	
CCCCCCCCCCN1C(=O)N(Cc2ccccc2)c2cc(Cl)cc(N3CCN(C)CC3)c2S1(=O)=O [Example 40, 4-Benzyl-6-chloro-2-decyl-8-(4-methyl-piperazin-1-yl)-1,1-dioxo-1,4-dihydro-2H-1λ^6-benzo[1,2,4]thiadiazin-3-one]	4.5		
O=C1N(Cc2ccccc2)c2cc(Cl)cc(N3CCNCC3)c2S(=O)(=O)N1Cc1cccc(F)c1 [Example 46, 4-Benzyl-6-chloro-2-(3-fluoro-benzyl)-1,1-dioxo-8-piperazin-1-yl-1,4-dihydro-2H-1λ^6-benzo[1,2,4]thiadiazin-3-one]		154 to 155	
CCCN1C(=O)N(Cc2ccccc2)c2cc(Cl)cc(N3CCNCC3)c2S1(=O)=O [Example 65, 4-Benzyl-6-chloro-2-propyl-1,1-dioxo-8-piperazin-1-yl-1,4-dihydro-2H-1λ^6-benzo[1,2,4]thiadiazin-3-one]		148 to 150	
CCCCCCCCCCN1C(=O)N(Cc2ccccc2)c2cc(Cl)cc(N3CCNCC3)c2S1(=O)=O [Example 67, 4-Benzyl-6-chloro-2-decyl-1,1-dioxo-8-piperazin-1-yl-1,4-dihydro-2H-1λ^6-benzo[1,2,4]thiadiazin-3-one]	3		
O=C1N(Cc2ccccc2)c2cc(Cl)cc(N3CCN4CCC[C@@H]4C3)c2S(=O)(=O)N1Cc1ccccc1Cl [Example 74, 4-Benzyl-6-chloro-2-(2-chloro-benzyl)-8-[(6R)-1,4-diazabicyclo[4.3.0]non-4-yl]-1,1-dioxo-1,4-dihydro-2H-1λ^6-benzo[1,2,4]thiadiazin-3-one]		114 to 116	
